From a melting point compilation (Tetko et al.; mined from patent text by program, amines drawn as free bases though some values may be those of a salt)

`COc1cc(C=CC=NO)ccc1OC(C)=O` gave a melting point of 72 to 74 °C.
Compound `CC(NC(=O)C(CS)C(C)c1ccc(F)c(F)c1)C(=O)O` (centres undefined) has a melting point of 61 °C.
`CC(C)COC(=O)C1(F)C(=O)NC(=O)NC1O/N=C\c1ccco1` (centres undefined) gave a melting point of 159 to 160 °C.
In the case of `C[C@@H](NCC1COc2ccccc2N1)c1ccccc1` (some centres undefined), the melting point was 91 to 92 °C.
Work on `O=C1CC(NCc2ccccc2)C(=O)N1Cc1ccccc1` (centres undefined) yielded a melting point of 60 to 63 °C.
`COC1c2ccccc2CSc2ccc(Br)cc21` (centres undefined) gave a melting point of 68 to 71 °C.
In the case of `CCc1nc2c(N)nc3ccccc3c2n1CC#Cc1cccc(C(F)(F)F)c1`, the melting point was 202 to 204 °C.
`NS(=O)(=O)c1cc2cc[nH]c(=O)c2o1` gave a melting point of 290 to 291 °C.
`O=C(O)COc1cc2cc(-c3ccccc3)sc2c(Cl)c1Cl` gave a melting point of 209 to 211 °C.
In the case of `NC(=O)c1ccc(Cl)c([N+](=O)[O-])c1N1CC1`, the melting point was 216 °C.
Work on `CC(=O)c1cc(F)cc(C#N)c1F` yielded a melting point of 80 to 83 °C.
In the case of `CCc1csc2nc(C(=O)OC)cn12`, the melting point was 147 to 149 °C.
Compound `COc1ccc(C(=O)c2ccc(CC(=O)O)n2C)cc1` has a melting point of 170 to 171 °C.
Work on `O=C(Nc1ccc(C(F)(F)F)cc1)N1CC(NC(=O)C(F)(F)F)C(c2ccc(Cl)cc2)=N1` (centres undefined) yielded a melting point of 259 to 260 °C.
`O=C1CC(c2cccc(-c3nc(CN4CCOCC4)co3)c2)=Nc2ccc(-n3cccc3)cc2N1` gave a melting point of 166 to 167 °C.
In the case of `CCc1ccc(C(=O)CCCSc2nnnn2C)cc1`, the melting point was 68 to 69 °C.
Compound `N[C@@H]1Cc2c(Br)ccc3c2[C@@H](C1)CN3C(=O)c1ccccc1` has a melting point of 169 to 173 °C.
With `Nc1nc(NCCOc2ccccc2)nc(-c2cc(Cl)ccc2Cl)n1` the melting point was 172 to 173 °C.
In the case of `COc1ccc(C(=O)c2ccoc2)c(Cl)c1Cl`, the melting point was 118 to 122 °C.
Work on `N#Cc1cc(Cc2ccccc2)cc(-c2cccc([N+](=O)[O-])c2)c1O` yielded a melting point of 148 to 149 °C.
`CCOc1csc(NC(C)=O)c1C#N` showed a melting point of 242 to 243 °C.
Compound `O=C(CN1CCC(Cc2ccccc2)CC1)Nc1ccc(O)cc1` has a melting point of 66 to 70 °C.
With `N#Cc1cccc(Nc2nc(N)c(C(=O)c3ccccc3C#N)s2)c1` the melting point was 235 to 236 °C.
For `Oc1ccc(-c2nc3cc(O)c(Cl)cc3o2)cc1`, the melting point was 260 to 262 °C.
Work on `COc1ccnc(CCc2nc3cc(-c4ccc(S(=O)(=O)N5CCC(C(=O)c6ccccc6)CC5)cc4)cnc3[nH]2)c1` yielded a melting point of 174 to 175 °C.
`COCO[C@H]1C[C@H]2OC(C)(C)OC[C@]23C2C(CC[C@]3(O)C1)[C@@]1(OCOC)CC[C@H](CO)[C@@]1(C)C[C@H]2OCOC` (some centres undefined) showed a melting point of 154 to 158 °C.
In the case of `CN(C)C(=O)Nc1cnc(N(C)C)c(Cl)c1`, the melting point was 139 to 141 °C.
In the case of `COC(=O)c1ccc(NS(=O)(=O)c2ccc(F)cc2)cn1`, the melting point was 183 to 185 °C.
Compound `CC(C#Cc1ccc(Br)cc1)N(O)C(N)=O` (centres undefined) has a melting point of 155 to 157 °C.
In the case of `Nc1ccc(C(=O)N2Cc3cccn3Cc3ccccc32)cc1`, the melting point was 166 to 168 °C.
Work on `Cc1cc(=O)[nH]c2c3c(cc(O)c12)OC(C)C(C)C3=O` (centres undefined) yielded a melting point of 300 °C.
In the case of `O=c1ccc(C(F)(F)F)cn1Cc1ccc(F)cc1`, the melting point was 70.1 to 72 °C.
Compound `CN(C)C(=O)c1ccc(CNC(=O)C2Cc3ccccc3N2S(=O)(=O)c2ccc(-c3ccccc3C(F)(F)F)cc2)cc1` (centres undefined) has a melting point of 105 to 106 °C.
`COC(=O)[C@H](NC(=O)OC(C)(C)C)c1ccc(O)cc1` gave a melting point of 140 to 142 °C.
`COc1cc(F)ccc1C(=O)NCCN1CCC(O)(c2ccc(Cl)cc2)CC1` showed a melting point of 157 °C.
Compound `Cc1ccc(C(=O)Nc2ccc(CN(C)C)c(C(F)(F)F)c2)cc1-c1ccc2cnncc2c1` has a melting point of 156 to 157 °C.
Work on `CN(C)c1nnc(-c2nnc(SCCC(F)=C(F)F)o2)o1` yielded a melting point of 87 to 90 °C.
In the case of `Oc1cc2c(cc1O)CN(c1ncnc3c(N4CCOCC4)nc(Cl)nc13)CC2`, the melting point was 187 to 189 °C.
For `Cc1ccc(-n2nc(C(=O)NC(C)(C)C)c3c2C2CCC3C2)cc1` (centres undefined), the melting point was 135 to 137 °C.
With `CSc1ccc(COc2cccc(C(=O)Nc3ccc(C#N)cn3)c2)cc1` the melting point was 146 to 147 °C.
In the case of `Cc1nc(-c2ccc(-c3ccc(C(=O)Nc4cc(OCCN(C)C)ccc4Cl)cc3)c(C)c2)no1`, the melting point was 101 to 102 °C.
Compound `COc1ccc(OCCCCCN2CCC(CNC(=O)c3cc(Cl)c(N)cc3OC)CC2)cc1OC` has a melting point of 85 to 87 °C.
Compound `O=S(CC1CO1)c1ncc(Cl)cn1` (centres undefined) has a melting point of 92 °C.
For `COCOc1cc(Cl)ccc1-c1cc(-c2cccc(C(=O)OC)c2)c(C#N)c(N)n1`, the melting point was 159 to 160 °C.
`CC(Oc1ccc(COc2ccc(Cl)cc2)cc1)C(=O)O` (centres undefined) showed a melting point of 156 to 158 °C.
Work on `CCOC(=O)c1c(C(=O)OCC)c(-c2ccc(OC)c(OC)c2)c2c(OC)c(OC)c(OC)cc2c1O` yielded a melting point of 138 to 140 °C.
For `c1cnnc(N2CCN(CCCOc3ccc(C4=NCCO4)cc3)CC2)c1`, the melting point was 145 °C.
For `CCN(CC)C(=O)c1ccc2ccccc2c1-c1ccc2ccccc2c1`, the melting point was 159 to 161 °C.
For `CC(C)(C)C(NC(=O)c1cccc(F)c1)Nc1c(Nc2cccnc2Cl)c(=O)c1=O` (centres undefined), the melting point was 228 to 229 °C.
With `Cc1nn(-c2cc([N+](=O)[O-])c(Cl)cc2F)c(Cl)c1Br` the melting point was 135 to 137 °C.
Work on `Cc1ccc(S(=O)(=O)OCC(O)(CC(C)(C)c2ccccc2)C(F)(F)F)cc1` (centres undefined) yielded a melting point of 78 °C.
With `CCOC(=O)c1cc2cc(OCCCS(C)(=O)=O)cc(N(C)S(=O)(=O)c3ccccn3)c2[nH]1` the melting point was 176 to 177 °C.
`NC1=NN(c2nc3ccccc3s2)CC1` showed a melting point of 232 to 235 °C.
Compound `COc1ccc2c3c(oc2c1)CCC(C(=O)O)=C3` has a melting point of 228 to 231 °C.
Work on `CC(C)=NOc1nc(C(F)(F)F)cc(=O)n1-c1cc(Oc2ccccc2[N+](=O)[O-])c(Cl)cc1F` yielded a melting point of 156 to 159 °C.
`CC(C)OP(=O)(CCCCC1(C(=O)NCC(F)(F)F)c2ccccc2-c2ccccc21)OC(C)C` showed a melting point of 91 to 94 °C.
`CC(=O)CCc1ccc2c(c1)Cc1cc([N+](=O)[O-])ccc1-2` gave a melting point of 159 to 162 °C.
For `COC(=O)c1ccc(Cl)c(CN2CCN(C)C2=O)c1Cl`, the melting point was 59 °C.
`O=C(OC1CCCCCC1)c1ncn2c1[C@@H]1CCCN1C(=O)c1c(Cl)cccc1-2` showed a melting point of 179 to 180 °C.
Compound `CN1CCC(=C2c3ccccc3C=Cc3ccc(C(=O)OCn4ccnc4)cc32)CC1` has a melting point of 118 to 121 °C.
`CCC(CC)c1ccc(Cl)c2nc3n(c12)CCCCN3c1ccc(OC(F)(F)F)cc1Br` showed a melting point of 114 to 117 °C.
Work on `COc1nc(C)c(C)nc1N(C)C(=O)N1CCN(c2cc(F)cc(F)c2)CC1` yielded a melting point of 104 to 106 °C.
`Fc1ccc(NC(=S)NN2CC=CCC2)cc1` gave a melting point of 163 to 164 °C.
With `Nc1ccc(S(=O)(=O)CI)cc1` the melting point was 170 to 172 °C.
With `CCCCc1ccc(-c2ccc(CCc3ccc(F)cc3)cc2)c(F)c1` the melting point was 35 °C.
Work on `Cc1ccc(-c2nc(CCl)cs2)s1` yielded a melting point of 89 to 90 °C.
Compound `COC(=O)c1ccc(-n2cc(-c3ccc4c(c3)C(C)(C)CCC4(C)C)cn2)cc1` has a melting point of 229 to 232 °C.
Compound `O=C(O)C1=Cc2cc(Br)ccc2S(=O)(=O)CC1` has a melting point of 290 to 300 °C.
Compound `CCOC(=O)c1c(C(C)C)c(S(=O)(=O)c2ccc(OC)cc2)n2ccccc12` has a melting point of 103 to 104 °C.
With `NC(=O)NC[C@@H]1CCCc2cc(Sc3cccc(F)c3)ccc21` the melting point was 115 to 116 °C.
Work on `Cc1ccccc1SCc1c(CCN(C)C)[nH]c2ccccc12` yielded a melting point of 134 to 137 °C.
`Cc1cc(C)c2ccc(N3C(=O)c4nccnc4C3=O)nc2n1` showed a melting point of 250 °C.
For `CCOC(=O)CC1COc2c(OC)ccc(C(=O)Nc3ccccc3)c21` (centres undefined), the melting point was 93 to 95 °C.
In the case of `COc1ccc(N2CCN(c3c(C)c4c(c(OC)c3C)OC(C)C4)CC2)cc1F` (centres undefined), the melting point was 120 to 122 °C.
Work on `CCCn1c(-c2ccccc2)nc2cc(C(=O)O)ccc21` yielded a melting point of 223 °C.
Work on `Cc1c(Nc2ncccc2C(=O)O)cccc1C(F)F` yielded a melting point of 232 to 234 °C.
In the case of `CCc1nc2c(C)nn(C)c2c2nc(C)cn12`, the melting point was 182 to 183 °C.
In the case of `COCCOn1nnc2ccc(Cn3ccnc3)cc21`, the melting point was 77 °C.
Work on `CN(c1cccc2cc(-c3nccs3)[nH]c12)S(=O)(=O)c1ccsc1CSCC(=O)O` yielded a melting point of 193 °C.
Work on `CC(=O)OCCCC(C(=O)C=Cc1ccc(O)c(OC(F)(F)F)c1)C(=O)C=Cc1ccc(O)c(OC(F)(F)F)c1` (centres undefined) yielded a melting point of 130 to 131 °C.
For `CS(=O)(=O)c1ccc(C(CC2CCCC2)C(=O)Nc2ncc(C(N)=O)s2)cc1` (centres undefined), the melting point was 155 to 160 °C.
`O=C(NCC1CC1)c1ccc(F)c2c1CC(N(CCCc1c[nH]c3ccc(F)cc13)C1CCC1)CO2` (centres undefined) showed a melting point of 114 °C.
For `CC(C)(C)OC(=O)NC(=O)C(N)OCc1ccccc1` (centres undefined), the melting point was 115 to 120 °C.
`NC(=O)c1c(Cl)c(-c2cncs2)n2c1CCCC2` gave a melting point of 227 °C.
`CC(C)(C)OC(=O)Nc1ccc(O)c(C(=O)O)c1` gave a melting point of over 270 °C.
`COC1=CC(O)=CC(OC)C1(OC)c1cc2cccnc2[nH]1` (centres undefined) gave a melting point of 174 to 176 °C.
With `Nc1ccc(OCC(F)(F)F)cc1[N+](=O)[O-]` the melting point was 84 to 85 °C.
`CCOC(=O)c1ccc(F)c(-c2cccc3cc(CBr)sc23)c1` showed a melting point of 143 to 144 °C.
`COC(=O)[C@@H]1CCCCOc2ccc(cc2)C[C@H](NC(=O)OC(C)(C)C)C(=O)N[C@@H](C(C)C)C(=O)N1` showed a melting point of 225 to 228 °C.
`CC(O)c1cccc(-c2ccc3nc(-c4ccc(Cl)cc4)cn3c2)c1` (centres undefined) showed a melting point of 168 to 170 °C.
`CC(C)NCCCCCCOc1ccc(OCc2ccccc2)cc1` gave a melting point of 47 to 49 °C.
With `CSc1ccc(N2C(=O)N(CC(=O)Nc3c(C(C)C)cccc3C(C)C)C(=O)C23CCOCC3)cc1` the melting point was 240 °C.
`O=C1N(Cc2ccc(C(F)(F)F)o2)c2ccc(F)cc2C1(CO)c1cc2c(cc1O)OCO2` (centres undefined) showed a melting point of 92 to 95 °C.
Compound `O=C(CNC(=O)OCc1ccccc1)ON1C(=O)CCC1=O` has a melting point of 110 to 112 °C.
Compound `CC(=O)NC1CCN(Cc2ccc(CCn3cnc4cc(-c5ccc(Cl)cc5)sc4c3=O)cc2)C1` (centres undefined) has a melting point of 196 to 198 °C.
For `Cc1ccc(-c2nc3ccc(CN4CCN(C)CC4)cc3[nH]2)cc1C#Cc1ccc(NC2CC2)nn1`, the melting point was 145 to 146 °C.
In the case of `CC1(C)CCC(C)(C)c2cc(C(=O)C=Cc3ccc(C(=O)O)c(O)c3)ccc21`, the melting point was 260 to 261 °C.
For `CC(C)(C)c1cc(-n2nc3ccc(S(=O)c4ccccc4)cc3n2)c(O)c(C(C)(C)C)c1` (centres undefined), the melting point was 152 to 154 °C.
`COC(=O)CCCS(=O)c1c(Cc2cccc3ccccc23)sc2c1c(=O)n(C)c(=O)n2CC(C)C` (centres undefined) gave a melting point of 160 to 161 °C.
